# Experimental data taken from publication PMC7914897, “Cytotoxic Potential of a-Azepano- and 3-Amino-3,4-SeCo-Triterpenoids” (International Journal of Molecular Sciences, 2021).
# What was measured:
# [1] = tested on: NIH 3T3 (non-malignant mouse fibroblasts); assay: SRB cytotoxicity assay, 72 h; type: cell-based; details: Mus musculus, NIH3T3; NIH 3T3, 72 h, cut-off 30 µM; read-out: EC50
# Outline: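 Absorbance at 570 nm of SRB-stained cells gives % survival vs untreated controls, from which EC50 is determined. Treatment: 0–30 µM serial dilutions, 72 h, beginning 24 h post-seeding; DMSO ≤0.5%. TCA (10%) fixation, acetic acid wash.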
# [2] = tested on: LOX IMVI (Melanoma); assay: NCI-60 screen (SRB, 48 h); type: cell-based; details: Homo sapiens
# [3] = tested on: Leukemia subpanel; assay: cells; details: Homo sapiens
# [4] = tested on: Prostate cancer subpanel; assay: NCI-60 screen, subpanel; details: Homo sapiens
# [5] = tested on: K-562 (Leukemia); assay: NCI-60 screen (SRB, 48 h); details: Homo sapiens
# [6] = tested on: A549/ATCC (NSC lung cancer); assay: NCI-60 screen (SRB, 48 h); details: Homo sapiens
# [7] = tested on: HCT-116 (Colon cancer); assay: NCI-60 screen (SRB, 48 h); details: Homo sapiens
# [8] = tested on: HCT-15 (Colon cancer); assay: NCI-60 screen (SRB, 48 h); details: Homo sapiens
# [9] = tested on: KM12 (Colon cancer); assay: NCI-60 screen (SRB, 48 h); details: Homo sapiens
# [10] = tested on: SNB-19 (CNS cancer); assay: NCI-60 screen (SRB, 48 h); details: Homo sapiens
# [11] = tested on: U251 (CNS cancer); assay: NCI-60 screen (SRB, 48 h)
# [12] = tested on: MALME-3M (Melanoma); assay: NCI-60 screen (SRB, 48 h); details: Homo sapiens
# [13] = tested on: SK-MEL-2 (Melanoma); assay: NCI-60 screen (SRB, 48 h); details: Homo sapiens
# [14] = tested on: UACC-62 (Melanoma); assay: NCI-60 screen (SRB, 48 h); details: Homo sapiens
# [15] = tested on: IGROV1 (Ovarian cancer); assay: NCI-60 screen (SRB, 48 h); details: Homo sapiens
# [16] = tested on: NCI/ADR-RES (Ovarian cancer); assay: NCI-60 screen (SRB, 48 h); details: Homo sapiens
# [17] = tested on: RXF 393 (Renal cancer); assay: NCI-60 screen (SRB, 48 h); details: Homo sapiens
# [18] = tested on: SN12C (Renal cancer); assay: NCI-60 screen (SRB, 48 h); details: Homo sapiens
# [19] = tested on: TK-10 (Renal cancer); assay: NCI-60 screen (SRB, 48 h); details: Homo sapiens
# [20] = tested on: PC-3 (Prostate cancer); assay: NCI-60 screen (SRB, 48 h); details: Homo sapiens
# [21] = tested on: MCF7 (Breast cancer); assay: NCI-60 screen (SRB, 48 h); details: Homo sapiens
# [22] = tested on: MDA-MB-31/ATCC (Breast cancer); assay: NCI-60 screen (SRB, 48 h); details: Homo sapiens
# [23] = tested on: HS 578T (Breast cancer); assay: NCI-60 screen (SRB, 48 h); details: Homo sapiens
smiles,measurement,setting,value
CC(C)=C1CCC=C2CC[C@]3(C)[C@H](CC[C@@H]4[C@@]5(C)CCCNC(C)(C)[C@@H]5CC[C@]43C)[C@H]21 [Compound 9],EC50,[1],2650 ± 500 nM
same,IC (TGI),[2]; 48 h,3.01 µM
same,activity at 10 µM,"[2]; 48 h, 1 dose 10 µM, read-out: Growth % of the Most Sensitive Cell Lines",-100%
same,GI50,[2]; read-out: GI50,1650 nM
same,CC50,[2]; read-out: LC50 (the source's name),5.49 µM
same,IC (TGI),"[3]; 48 h, read-out: TGI MG_MID",3.59 µM
same,GI50,[3]; read-out: GI50 MG_MID,1550 nM
same,CC50,[3]; read-out: LC50 MG_MID,7.19 µM
same,IC (TGI),"[4]; 48 h, read-out: TGI MG_MID",3.29 µM
same,GI50,[4]; read-out: GI50 MG_MID,1780 nM
same,CC50,[4]; read-out: LC50 MG_MID,6.08 µM
same,GI50,[5]; K562,1250 nM
same,IC (TGI),"[5]; K562, 48 h, read-out: TGI",3.5 µM
same,GI50,[6]; A549,1790 nM
same,IC (TGI),"[6]; A549, 48 h, read-out: TGI",3.52 µM
same,GI50,[7]; HCT-116,1730 nM
same,IC (TGI),"[7]; HCT-116, 48 h, read-out: TGI",3.31 µM
same,GI50,[8]; HCT-15,1400 nM
same,IC (TGI),"[8]; HCT-15, 48 h, read-out: TGI",2.81 µM
same,GI50,[9]; KM12,1920 nM
same,IC (TGI),"[9]; KM12, 48 h, read-out: TGI",3.42 µM
same,GI50,[10]; SNB-19,1810 nM
same,IC (TGI),"[10]; SNB-19, 48 h, read-out: TGI",3.36 µM
same,GI50,"[11]; Homo sapiens, U-251",1690 nM
same,IC (TGI),"[11]; Homo sapiens, U-251, 48 h, read-out: TGI",3.17 µM
same,Growth % of the Most Sensitive Cell Lines,"[11]; U251, 1 dose 10 µM",−90.81%
same,GI50,[12],1770 nM
same,IC (TGI),"[12]; 48 h, read-out: TGI",3.48 µM
same,CC50,[12]; read-out: LC50,6.84 µM
same,GI50,[13]; SK-MEL-2,1810 nM
same,IC (TGI),"[13]; SK-MEL-2, 48 h, read-out: TGI",3.48 µM
same,CC50,"[13]; SK-MEL-2, read-out: LC50",6.69 µM
same,GI50,[14]; UACC-62,1770 nM
same,IC (TGI),"[14]; UACC-62, 48 h, read-out: TGI",3.22 µM
same,CC50,"[14]; UACC-62, read-out: LC50",5.85 µM
same,GI50,[15]; IGROV-1,1730 nM
same,IC (TGI),"[15]; IGROV-1, 48 h, read-out: TGI",3.27 µM
same,GI50,[16],1840 nM
same,IC (TGI),"[16]; 48 h, read-out: TGI",3.52 µM
same,CC50,[16]; read-out: LC50,6.73 µM
same,GI50,[17]; RXF 393,1610 nM
same,IC (TGI),"[17]; RXF 393, 48 h, read-out: TGI",3.1 µM
same,CC50,"[17]; RXF 393, read-out: LC50",5.98 µM
same,GI50,[18],1830 nM
same,IC (TGI),"[18]; 48 h, read-out: TGI",3.44 µM
same,CC50,[18]; read-out: LC50,6.45 µM
same,GI50,[19]; TK-10,1810 nM
same,IC (TGI),"[19]; TK-10, 48 h, read-out: TGI",3.37 µM
same,CC50,"[19]; TK-10, read-out: LC50",6.3 µM
same,GI50,[20]; PC-3,1580 nM
same,IC (TGI),"[20]; PC-3, 48 h, read-out: TGI",3.02 µM
same,CC50,"[20]; PC-3, read-out: LC50",5.78 µM
same,GI50,[21]; MCF7,1770 nM
same,IC (TGI),"[21]; MCF7, 48 h, read-out: TGI",3.54 µM
same,GI50,[22],1800 nM
same,IC (TGI),"[22]; 48 h, read-out: TGI",3.47 µM
same,CC50,[22]; read-out: LC50,6.69 µM
same,GI50,[23],1790 nM
same,IC (TGI),"[23]; 48 h, read-out: TGI",4.04 µM
same,CC50,[23]; read-out: LC50,9.11 µM
